What was measured:
[1] = system: HEK293A cells; assay: Resazurin assay to assess acute toxicity of common tissue culture antibiotics; assay type: cell-based, human; settings: two-day treatment
Method: FIGS. 46A-46D. Resazurin assay to assess acute toxicity of common tissue culture antibiotics. HEK293A cells were treated for two days with either G418 (FIG. 46A), puromycin (FIG. 46B), blasticidin (FIG. 46C), or hygromycin (FIG. 46D), and cell viability was analyzed by resazurin fluorescence.
A 96-well plate was seeded with HEK293A cells (˜15,000) and treated with either puromycin HCl (Corning), Hygromycin B (Thermo Fisher), Blasticidin S HCl (Thermo Fisher), or G418 (Enzo). Two days later, 10 μL of 0.1 mg/mL resazurin (MilliporeSigma) was added and incubated for 1.5 h. Media was transferred to a fresh 96-well plate and fluorescence was analyzed on a Bio-Tek Synergy H1 Hybrid Microplate Reader.

[2] = system: RFP.ΔAdPol.adenovirus; assay: Time course of antibiotic inhibition of adenoviral replication; assay type: cell-based, Adenovirus type 5; settings: treatment initiated 24 h post-infection
Excerpt: FIGS. 47A-47B. Time-course of antibiotic-mediated inhibition of adenoviral infection. HEK293A cells expressing wild-type AdPol were infected with RFP.ΔAdPol.adenovirus and treated with either a) puromycin, or b) blasticidin at various time points post-infection (h.p.i.=hours post-infection). After 2 days, the infections were harvested and titered by flow cytometry. Titers are given in infectious units per milliliter (IU/mL), defined as the volume of adenoviral supernatant required to induce fluorescence in a cell as analyzed by flow cytometry. Dashed line represents the limit of detection (L.O.D) of the assay. Titers below this limit are inaccurate due to the percentage of infected cells being below the 1% error threshold of flow cytometry.
RFP.ΔAdPol.adenovirus (TABLE 16) was used to infect a 24-well plate of wild-type AdPol cells (150,000 cells/well) (TABLE 17) at MOI=1, and either blasticidin or puromycin was added at various time points following the infection. Viral supernatants were harvested ˜48 h post-infection, and titered by flow cytometry as described above.

[3] = system: 1:10 mixture of tTA.mCherry.ΔAdPol.adenovirus and CFP.GFP.ΔAdPol.adenovirus; assay: Enrichment of tTA-expressing adenovirus by blasticidin selection in TRE3G.blastR cells; assay type: cell-based, Adenovirus type 5; settings: 20 μM blasticidin, added 10 h post-infection
Method: FIG. 49. Enrichment of adenoviruses encoding positive BOI variants by antibiotic selection. TRE3G.blastR cells were infected with a 1:10 mixture of ΔAdPol.adenovirus encoding either tTA (+tTA) or CFP (−tTA) and treated with blasticidin 10 h post-infection. Two days post-infection, adenoviruses were harvested and titered by flow cytometry. Titers are given in infectious units per milliliter (IU/mL), defined as the volume of adenoviral supernatant required to induce fluorescence in a cell as analyzed by flow cytometry. Dashed line represents the limit of detection (L.O.D) of the assay. Titers below this limit are inaccurate due to the percentage of infected cells being below the 1% error threshold of flow cytometry.
A 1:10 mixture of tTA.mCherry.ΔAdPol.adenovirus and CFP.GFP.ΔAdPol.adenovirus (TABLE 16) was used to infect a 24-well plate of TRE3G.blastR cells (150,000 cells/well) (TABLE 17) at MOI=0.7, and blasticidin was added 10 h post-infection. Viral supernatants were harvested ˜48 h post-infection, and titered by flow cytometry as described above.

[4] = system: ΔAdPol.adenovirus encoding either tTA or RFP; assay: tTA-induced resistance to antibiotic inhibition of adenoviral replication; assay type: cell-based, Adenovirus type 5; settings: treatment 10 h post-infection
Method: FIGS. 48A-48D. tTA-induced resistance to antibiotic mediated inhibition of adenoviral infection. Either wild-type AdPol cells, TRE3G.puroR cells, or TRE3G.blastR cells were infected with ΔAdPol.adenovirus encoding either tTA (+tTA) or RFP (−tTA). Ten hours post-infection, wild-type AdPol cells were treated with either puromycin (FIG. 48A) or (FIG. 48B) blasticidin, TRE3G.puroR cells were treated with puromycin (FIG. 48C), and TRE3G.blastR cells were treated with blasticidin (FIG. 48D). After 2, days, the infections were harvested and titered by flow cytometry. Titers are given in infectious units per milliliter (IU/mL), defined as the volume of adenoviral supernatant required to induce fluorescence in a cell as analyzed by flow cytometry. Dashed line represents the limit of detection (L.O.D) of the assay. Titers below this limit are inaccurate owing to the percentage of infected cells being below the 1% error threshold of flow cytometry.
Either RFP.ΔAdPol.adenovirus, or tTA.mCherry.ΔAdPol.adenovirus (TABLE 16) was used to infect a 24-well plate of either wild-type AdPol cells, TRE3G.puroR cells, or TRE3G.blastR cells (150,000 cells/well) (TABLE 17) at MOI=1, and either puromycin or blasticidin was added 10 h post-infection. Viral supernatants were harvested ˜48 h post-infection, and titered by flow cytometry as described above.

[5] = system: tTAwt.mCherry adenovirus; assay: Doxycycline dose response of tTAwt.mCherry adenovirus titer in TRE3G.AdProt cells; assay type: cell-based, Adenovirus type 5; settings: synchronous infection, various dox concentrations
Method: FIG. 36. Dose response of tTA-mCherry titer when treated with doxycycline. […] Titer is given in “infectious units per mL” (IU/mL), which is defined as the number of viruses per mL that are able to elicit a fluorescent signal in cells when analyzed by flow cytometry.
A semi-confluent dish of TRE3G.AdProt cells (˜160,000 cells) (TABLE 13) was infected with tTAwt. mCherry adenovirus (multiplicity of infection ˜2.5) (TABLE 12). After 3 h, the cells were washed twice, and fresh tet-approved media (Takara Bio) supplemented with various concentrations of dox was added. 5 days later, the virus lysates were harvested and viral titers were analyzed by flow cytometry.

[6] = system: tTAwt.mCherry adenovirus; assay type: cell-based, Adenovirus type 5
Method: FIGS. 21A-21C. FIG. 21A. […] HEK293A cells stably encoding the gene for adenoviral protease (AdProt) under control of the endogenous tTA operator are infected by an initial ratio of 1:100 or 1:1,000 tTAwt.mCherry to tTAmut.GFP viruses. Viral media was serially passaged onto a new plate of cells for three rounds. The viral populations were then determined via flow cytometry. FIG. 21B. Quantification of flow cytometry data from the competition experiment. […] The initial ratio of the 1:1,000 sample (labeled N.D.; not detectable) was not experimentally quantifiable owing to the low amount of tTAwt.mCherry adenovirus present, and was therefore derived by dilution of the 1:100 initial ratio. For raw flow cytometry data, see FIG. 26 and FIG. 27. FIG. 21C. […]
Adenoviral titers were determined through flow cytometry. […] 2-3 days post-infection, cells were washed once with media, stained with 0.2 μg/mL DAPI, and then analyzed on a BD LSR II Analyzer for fluorescent protein expression. Infectious titers were determined by measuring the percentage of cells infected by a known volume of virus. To minimize counting cells that were infected by more than one virus and to minimize any background fluorescence, data were only considered if they fell within the linear range, which typically encompassed samples where 1-10% of cells were infected. […]

[7] = system: AdGLΔPol adenoviral genome; settings: high fidelity deep sequencing by Sanjuán and co-workers (Risso-Ballester et al. 2016); cited from earlier work

**Q.** Which “dynamic range of inhibitory concentrations” value [1] does the source give for CN(CC[C@H](N)CC(=O)N[C@H]1C=C[C@H](n2ccc(N)nc2=O)O[C@@H]1C(=O)O)C(=N)N [blasticidin] here?
**A.** over two orders of magnitude

**Q.** What about the “acute toxicity (cell viability by resazurin fluorescence)” value ([1]; various concentrations) of the same molecule?
**A.** completely toxic

**Q.** What about the “inhibition of adenoviral replication” value [2] of the same molecule?
**A.** Neither puromycin nor blasticidin were able to inhibit adenoviral replication

**Q.** And the “drop of CFP.ΔAdPol.adenovirus titer” value [3]?
**A.** over 100 fold

**Q.** And the tTA.mCherry.ΔAdPol.adenovirus titer [3]?
**A.** remained steady

**Q.** What about the “effect on RFP.ΔAdPol.adenovirus” value ([4]; TRE3G.blastR cell line) of the same molecule?
**A.** still inhibited

**Q.** What about the “effect on tTA.ΔAdPol.adenovirus” value ([4]; TRE3G.blastR cell line) of the same molecule?
**A.** completely resistant to blasticidin treatment

**Q.** And the “effect on ΔAdPol.adenovirus replication” value ([4]; wild-type AdPol cell line)?
**A.** inhibited both RFP-expressing and tTA-expressing ΔAdPol.adenovirus replication

**Q.** With C[C@H]1c2cccc(O)c2C(=O)C2=C(O)[C@]3(O)C(=O)C(C(N)=O)=C(O)[C@@H](N(C)C)[C@@H]3[C@@H](O)[C@@H]21 [dox, doxycycline] as the molecule, how does the “modulation of adenoviral titers” value [5] read?
**A.** ~10 fold

**Q.** And the “decrease in viral titer” value [6]?
**A.** ~10 fold

B1: AdPol: high fidelity wild-type adenovirus type-5 DNA polymerase (protein, UniProt P04495 1-1198, looked up)
DNA polymerase: MALVQAHRARRLHAEAPDSGDQPPRRRVRQQPTRAAPAPARARRRRAPAPSPGGSGAPPTSGGSPASPLLDASSKDTPAAHRPPRGTVVAPRGCGLLQAIDAATNQPLEIRYHLDLARALTRLCEVNLQELPPDLTPRELQTMDSSHLRDVVIKLRPPRADIWTLGSRGVVVRSTVTPLEQPDGQGQAAEVEDHQPNPPGEGLKFPLCFLVRGRQVNLVQDVQPVHRCQYCARFYKSQHECSARRRDFYFHHINSHSSNWWREIQFFPIGSHPRTERLFVTYDVETYTWMGAFGKQLVPFMLVMKFGGDEPLVTAARDLAANLGWDRWEQDPLTFYCITPEKMAIGRQFRTFRDHLQMLMARDLWSSFVASNPHLADWALSEHGLSSPEELTYEELKKLPSIKGIPRFLELYIVGHNINGFDEIVLAAQVINNRSEVPGPFRITRNFMPRAGKILFNDVTFALPNPRSKKRTDFLLWEQGGCDDTDFKYQYLKVMVRDTFALTHTSLRKAAQAYALPVEKGCCAYQAVNQFYMLGSYRSEADGFPIQEYWKDREEFVLNRELWKKKGQDKYDIIKETLDYCALDVQVTAELVNKLRDSYASFVRDAVGLTDASFNVFQRPTISSNSHAIFRQIVFRAEQPARSNLGPDLLAPSHELYDYVRASIRGGRCYPTYLGILREPLYVYDICGMYASALTHPMPWGPPLNPYERALAARAWQQALDLQGCKIDYFDARLLPGVFTVDADPPDETQLDPLPPFCSRKGGRLCWTNERLRGEVATSVDLVTLHNRGWRVHLVPDERTTVFPEWRCVAREYVQLNIAAKERADRDKNQTLRSIAKLLSNALYGSFATKLDNKKIVFSDQMDAATLKGITAGQVNIKSSSFLETDNLSAEVMPAFQREYSPQQLALADSDAEESEDERAPTPFYSPPSGTPGHVAYTYKPITFLDAEEGDMCLHTLERVDPLVDNDRYPSHLASFVLAWTRAFVSEWSEFLYEEDRGTPLEDRPLKSVYGDTDSLFVTERGHRLMETRGKKRIKKHGGNLVFDPERPELTWLVECETVCGACGADAYSPESVFLAPKLYALKSLHCPSCGASSKGKLRAKGHAAEGLDYDTMVKCYLADAQGEDRQRFSTSRTSLKRTLASAQPGAHPFTVTQTTLTRTLRPWKDMTLARLDEHRLLPYSESRPNPRNEEICWIEMP
**Q.** For B1, which estimated mutation rate [7] is on record?
**A.** ~1.3×10^−7 mutations per base per viral passage

Reference: US11414677B2, “Methods and compositions for performing continuous directed evolution” (Massachusetts Institute of Technology, priority 2017, dated 2022)
